According to patent EP0166726B1, “10-ETHYL-8,10-DIDEAZAMINOPTERINS” (SRI INTERNATIONAL, priority 1983, dated 1985):

Tested on: L-1210 leukemia cells
Experiment: L-1210 murine leukemia assay (increase in median life span)
Format: in vivo, Mice
Details: for ILS%: increase in median life span vs untreated controls, at LD10 dose, 5 injections every other day starting one day after transplantation of 10^6 tumor cells/mouse; for LD10 Dose: mice, injected once per day every other day, total of 5 injections; for Cells Remaining: number of neoplastic cells remaining after treatment at LD10 dose, 10^6 tumor cells/mouse transplanted
Method: This is a standard assay that is used to evaluate the efficacy of compounds as antineoplastic agents for treating humans. The assay is described by D. J. Hitchinson, D. C. Robinson, D. Martin, O. L. Ittenson and Dillenberg, Journal Cancer Research, (1962) 22:57-72. It is a procedure for evaluating a compound for increase in median life span in treated animals and unteated controls both infected with L-1210 leukemia cells. […] Mice are injected once per day every other day for a total of 5 injections starting one day after transplantation of 10^6 tumor cells/mouse. The results of this assay with several, 8,10-dideazaminopterin analogs were as follows:
It is apparent from the above results that the life spans of the mice were increased considerably by administration of the invention compound and that this compound has surprising activity when compared to the non-alkylated and n-propyl or methyl analogs. The % ILS data represent comparisons of log values, and thus differences in the % ILS which appear minor mask large differences in cytotoxic activity. Thus, as shown, the ethyl derivative is 40 times as effective as the unsubstituted compound and 100 times as effective as the n-propyl derivative in terms of reducing the number of neoplastic cells; i.e., e.g., the number of cells remaining after 10-ethyl analog treatment is only 1/40 and 1/100 of that remaining from treatment with the above analogs, respectively. The assay and these conclusions are described by Schabel, F. M., Symposium on Proliferation and Spread of Neoplastic Cells, M. D. Anderson, Tumor Institute, Houston, Texas (1968), p. 379 ff.

Molecule | ILS% | LD10 Dose | Cells Remaining | times as effective as the unsubstituted compound in terms of reducing the number of neoplastic cells (relative to 8,10-dideazaminopterin, ratio of cells remaining) | times as effective as the n-propyl derivative in terms of reducing the number of neoplastic cells (relative to 10-n-propyl-8,10-dideazaminopterin, ratio of cells remaining)
10-Methyl-8,10-dideazaminopterin | +203% | 0.6 Mg/Kg | 1000 | – | –
10-Propyl-8,10-dideazaminopterin [10-n-propyl-8,10-dideazaminopterin] | +176% | 6.0 Mg/Kg | 10,000 | – | –
10-ethyl-8,10-dideazaminopterin | +235% | 1.5 Mg/Kg | 100 | 40 times | 100 times
Nc1nc(N)c2nc(CCc3ccc(C(=O)N[C@@H](CCC(=O)O)C(=O)O)cc3)ccc2n1 [8,10-dideazaminopterin] | +189% | 0.75 Mg/Kg | 4000 | – | –
CN(Cc1cnc2nc(N)nc(N)c2n1)c1ccc(C(=O)N[C@@H](CCC(=O)O)C(=O)O)cc1 [Methotrexate] | +187% | 15 Mg/Kg | – | – | –
